According to patent US9040530B2, “1,2,4-triazine-6-carboxamide kinase inhibitors” (Portola Pharmaceuticals, Inc., priority 2012, dated 2015):

Molecular target: T1, full length active recombinant SYK enzyme (Homo sapiens, UniProt P43405)
T1 construct: full length active recombinant SYK enzyme (Millipore, Calif.); purchased Millipore
Assay: Inhibition of Syk tyrosine phosphorylation activity (LANCE TR-FRET kinase assay)
Format: biochemical
Settings: 1 nM active SYK enzyme, 550 nM SYK-substrate, 100 μM ATP, 1 hour at room temperature
Experimental: The in vitro and in vivo human Syk activities of the inventive compounds can be determined by various procedures known in the art, such as a test for their ability to inhibit the activity of human plasma Syk.
Inhibition of Syk Tyrosine Phosphorylation Activity
SYK tyrosine phosphorylation activity is measured using the LANCE™ Technology developed by Perkin Elmer Life and Analytical Sciences (Boston, Mass.). LANCE™ refers to homogeneous time resolved fluorometry applications using techniques such as time-resolved fluorescence resonance energy transfer assay (TR-FRET) (see generally for procedures in Perkin Elmer Application Note—How to Optimize a Tyrosine Kinase Assay Using Time Resolved Fluorescence-Based LANCE Detection, wwww.perkinelmer.com/lifesciences). The assay principle involves detection of a phosphorylated substrate using energy transfer from a phosphospecific europium-labeled antibody to streptavidin-allophycocyanin as an acceptor.
Molecules are reconstituted in 30% DMSO and serially diluted 1:3 with the final dilution containing DMSO in the absence of the candidate molecule. The final DMSO concentration in the assay is 3%. Kinase assays are performed as a two part reaction. […] The second reaction involves termination of the kinase reaction and the simultaneous addition of the detection reagents-europium-labeled anti-phosphotyrosine reagent (Eu-W1024-PY100, Perkin Elmer, Boston, Mass.) and Streptavidin-Allophycocyanin detection reagent (SA-APC, Prozyme, CA). The kinase reaction is performed in a black U-bottom 96-well microtitre plate. […] The reaction is allowed to proceed for 1 hour at room temperature. The quench buffer contains 100 mM Tris pH 7.5, 300 mM […], 20 mM EDTA, 0.02% Brij35, and 0.5% BSA. The detection reagents are added to the reaction mixture at the following dilutions-1:500 for Eu-W1024-PY100 and 1:250 for SA-APC. The kinase reaction is terminated by the addition of 50 μL quench buffer containing the detection reagents. The detection is allowed to proceed for 1 hr at room temperature. Detection of the phosphorlated substrate in the absence and presence of inhibitors is measured in the TR-FRET instrument, Analyst HT (Molecular Probes, Sunnyvale, Calif.) and the condition for measurements are set up using CriterionHost Release 2.0 (Molecular Probes, Sunnyvale, Calif.). […] IC50s were derived by non-linear regression analysis.

Structure (SMILES)	IC50
NC(=O)c1nnc(N[C@@H]2CCCC[C@@H]2N)nc1Nc1nc(-c2ccccc2)no1 [Example 138, 3-(((1R,2S)-2-aminocyclohexyl)amino)-5-((3-phenyl-1,2,4-oxadiazol-5-yl)amino)-1,2,4-triazine-6-carboxamide]	> 1000 nM
NC(=O)c1nnc(N[C@@H]2CCCC(F)(F)[C@@H]2N)nc1Nc1ccc(Cl)cc1 [Example 250, 3-(((1R,2R)-2-amino-3,3-difluorocyclohexyl)amino)-5-((4-chlorophenyl)amino)-1,2,4-triazine-6-carboxamide]	100 to 1000 nM
NC(=O)c1nnc(N[C@@H]2CCCC[C@@H]2N)nc1Nc1ccc(F)nc1 [Example 67, 3-(((1R,2S)-2-aminocyclohexyl)amino)-5-((6-fluoropyridin-3-yl)amino)-1,2,4-triazine-6-carboxamide]	100 to 1000 nM
Cc1ccc(Nc2nc(N[C@@H](C(N)=O)C(C)C)nnc2C(N)=O)cc1C [Example 208, (R)-3-((1-amino-3-methyl-1-oxobutan-2-yl)amino)-5-((3,4-dimethylphenyl)amino)-1,2,4-triazine-6-carboxamide]	10 to 100 nM
NC(=O)c1nnc(N[C@@H]2CCCC[C@@H]2N)nc1Nc1ccc(N2CCOCC2=O)cc1 [Example 34, 3-(((1R,2S)-2-aminocyclohexyl)amino)-5-((4-(3-oxomorpholino)phenyl)amino)-1,2,4-triazine-6-carboxamide]	100 to 1000 nM
CC[C@@H](Nc1nnc(C(N)=O)c(Nc2ccc(C)c(F)c2)n1)C(N)=O [Example 196, (R)-3-((1-amino-1-oxobutan-2-yl)amino)-5-((3-fluoro-4-methylphenyl)amino)-1,2,4-triazine-6-carboxamide]	10 to 100 nM
Cc1ccc(Nc2nc(N[C@H](Cc3cccc(F)c3)C(N)=O)nnc2C(N)=O)cc1 [Example 190, (R)-3-(1-amino-3-(3-fluorophenyl)-1-oxopropan-2-ylamino)-5-(p-tolylamino)-1,2,4-triazine-6-carboxamide]	10 to 100 nM
COc1cc(Nc2nc(N[C@@H]3CCCC(F)(F)[C@@H]3N)nnc2C(N)=O)ccc1Cl [Example 230, 3-(((1R,2R)-2-amino-3,3-difluorocyclohexyl)amino)-5-((4-chloro-3-methoxyphenyl)amino)-1,2,4-triazine-6-carboxamide]	100 to 1000 nM
Cn1ccc2c(Nc3nc(N[C@@H](C(N)=O)C(C)(C)C)nnc3C(N)=O)cccc21 [Example 93, (R)-3-((1-amino-3,3-dimethyl-1-oxobutan-2-yl)amino)-5-((1-methyl-1H-indol-4-yl)amino)-1,2,4-triazine-6-carboxamide]	100 to 1000 nM
NC(=O)c1nnc(N[C@@H]2CCCC[C@@H]2N)nc1Nc1ccc2c(ccc[n+]2[O-])c1 [Example 48, 6-((3-(((1R,2S)-2-aminocyclohexyl)amino)-6-carbamoyl-1,2,4-triazin-5-yl)amino)quinoline 1-oxide]	10 to 100 nM
CC(C)C[C@@H](Nc1nnc(C(N)=O)c(Nc2ccc3c(ccc[n+]3[O-])c2)n1)C(N)=O [Example 54, (R)-6-((3-((1-amino-4-methyl-1-oxopentan-2-yl)amino)-6-carbamoyl-1,2,4-triazin-5-yl)amino)quinoline 1-oxide]	10 to 100 nM
NC(=O)c1nnc(N[C@@H]2CCCC[C@@H]2N)nc1Nc1cnc2ccc(F)cc2c1 [Example 122, 3-(((1R,2S)-2-aminocyclohexyl)amino)-5-((6-fluoroquinolin-3-yl)amino)-1,2,4-triazine-6-carboxamide]	10 to 100 nM
CC[C@@H](Nc1nnc(C(N)=O)c(Nc2cccc(C)c2)n1)C(N)=O [Example 13, (R)-3-((1-amino-1-oxobutan-2-yl)amino)-5-(m-tolylamino)-1,2,4-triazine-6-carboxamide]	10 to 100 nM
CC[C@@H](Nc1nnc(C(N)=O)c(Nc2ccc(C)c(OC)c2)n1)C(N)=O [Example 231, (R)-3-((1-amino-1-oxobutan-2-yl)amino)-5-((3-methoxy-4-methylphenyl)amino)-1,2,4-triazine-6-carboxamide]	10 to 100 nM
C[C@@H](Nc1nnc(C(N)=O)c(Nc2ccc3ccn(C)c3c2)n1)C(N)=O [Example 164, (R)-3-((1-amino-1-oxopropan-2-yl)amino)-5-((1-methyl-1H-indol-6-yl)amino)-1,2,4-triazine-6-carboxamide]	10 to 100 nM
Cc1ccc(Nc2nc(N[C@@H]3CCCC(F)(F)[C@@H]3N)nnc2C(N)=O)cc1Cl [Example 219, 3-(((1R,2R)-2-amino-3,3-difluorocyclohexyl)amino)-5-((3-chloro-4-methylphenyl)amino)-1,2,4-triazine-6-carboxamide]	10 to 100 nM

The remaining lines, values ahead:

IC50	Structure (SMILES)
10 to 100 nM	NC(=O)c1nnc(N[C@@H]2CCCC(F)(F)[C@@H]2N)nc1Nc1ccc2scnc2c1 [Example 245, 3-(((1R,2R)-2-amino-3,3-difluorocyclohexyl)amino)-5-(benzo[d]thiazol-5-ylamino)-1,2,4-triazine-6-carboxamide]
10 to 100 nM	NC(=O)c1nnc(N[C@@H]2CCCC(F)(F)[C@@H]2N)nc1Nc1ccc2c(c1)CCOC2 [Example 214, 3-(((1R,2R)-2-amino-3,3-difluorocyclohexyl)amino)-5-(isochroman-6-ylamino)-1,2,4-triazine-6-carboxamide]
10 to 100 nM	CC[C@@H](Nc1nnc(C(N)=O)c(Nc2ccc(C(F)(F)F)c(C(F)(F)F)c2)n1)C(N)=O [Example 135, (R)-3-((1-amino-1-oxobutan-2-yl)amino)-5-((3,4-bis(trifluoromethyl)phenyl)amino)-1,2,4-triazine-6-carboxamide]
1 to 10 nM	CCC(=O)N1CCC(c2ccc(Nc3nc(N[C@@H]4CCCC[C@@H]4N)nnc3C(N)=O)cc2)CC1 [Example 28, 3-(((1R,2S)-2-aminocyclohexyl)amino)-5-((4-(1-propionylpiperidin-4-yl)phenyl)amino)-1,2,4-triazine-6-carboxamide]
1 to 10 nM	Cn1ccc2ccc(Nc3nc(N[C@@H]4CCOC[C@@H]4N)nnc3C(N)=O)cc21 [Example 165, 3-(((3R,4R)-3-aminotetrahydro-2H-pyran-4-yl)amino)-5-((1-methyl-1H-indol-6-yl)amino)-1,2,4-triazine-6-carboxamide]
1 to 10 nM	NC(=O)c1nnc(N[C@@H]2CCCC[C@@H]2N)nc1Nc1ccn2ccnc2c1 [Example 198, 3-(((1R,2S)-2-aminocyclohexyl)amino)-5-(imidazo[1,2-a]pyridin-7-ylamino)-1,2,4-triazine-6-carboxamide]
10 to 100 nM	C[N+]1([O-])CCC(c2ccc(Nc3nc(N[C@@H]4CCCC[C@@H]4N)nnc3C(N)=O)cc2)CC1 (stereo partly drawn) [Example 29, 4-(4-((3-(((1R,2S)-2-aminocyclohexyl)amino)-6-carbamoyl-1,2,4-triazin-5-yl)amino)phenyl)-1-methylpiperidine 1-oxide]
10 to 100 nM	Cc1ccc(Nc2nc(N[C@H](CC3CC3)C(N)=O)nnc2C(N)=O)cc1 [Example 226, (R)-3-((1-amino-3-cyclopropyl-1-oxopropan-2-yl)amino)-5-(p-tolylamino)-1,2,4-triazine-6-carboxamide]
10 to 100 nM	Cc1ccc(Nc2nc(N[C@H](CC(C)C)C(N)=O)nnc2C(N)=O)cc1 [Example 121, (R)-3-((1-amino-4-methyl-1-oxopentan-2-yl)amino)-5-(p-tolylamino)-1,2,4-triazine-6-carboxamide]
1 to 10 nM	NC(=O)c1nnc(N[C@@H]2CCNC2)nc1Nc1ccc2ncccc2c1 [Example 57, (R)-3-(pyrrolidin-3-ylamino)-5-(quinolin-6-ylamino)-1,2,4-triazine-6-carboxamide]
1 to 10 nM	Cn1cc(C#N)c2ccc(Nc3nc(N[C@@H]4CCCC[C@@H]4N)nnc3C(N)=O)cc21 [Example 136, 3-(((1R,2S)-2-aminocyclohexyl)amino)-5-((3-cyano-1-methyl-1H-indol-6-yl)amino)-1,2,4-triazine-6-carboxamide]
1 to 10 nM	CC[C@@H](Nc1nnc(C(N)=O)c(Nc2cc(Cl)c3ncccc3c2)n1)C(N)=O [Example 177, (R)-3-((1-amino-1-oxobutan-2-yl)amino)-5-((8-chloroquinolin-6-yl)amino)-1,2,4-triazine-6-carboxamide]
1 to 10 nM	Cn1cc2ccc(Nc3nc(N[C@@H]4CCCC[C@@H]4N)nnc3C(N)=O)cc2n1 [Example 181, 3-(((1R,2S)-2-aminocyclohexyl)amino)-5-((2-methyl-2H-indazol-6-yl)amino)-1,2,4-triazine-6-carboxamide]
1 to 10 nM	CC[C@@H](Nc1nnc(C(N)=O)c(Nc2csc3ncccc23)n1)C(N)=O [Example 39, (R)-3-((1-amino-1-oxobutan-2-yl)amino)-5-(thieno[2,3-b]pyridin-3-ylamino)-1,2,4-triazine-6-carboxamide]
